Results: patent US20260224563A1, “CRYSTALLINE FORMS OF 6-(3-((5-CHLORO-2-METHOXYPYRIDINE)-3-SULFONAMIDO)-2,6-DIFLUOROPHENYL)-N-METHYLIMIDAZO[1,5-A]PYRAZINE-1-CARBOXAMIDE AND METHODS FOR USING THE SAME” (HIBERCELL, INC., priority 2023, published 2026)
Read-outs that look alike come from different tables or passages of the source.

Assay: Multicenter, open-label, Phase 1a/b study of HC-7366 in subjects with advanced solid tumors (safety, PK)
Assay type: in vivo
Details: for AUC(0-t) / Vd/F / Tmax / Cmax / half-life / % AUCextrap / CL/F / DAUC0-24 / DAUC0-last / DAUC0-∞ / DCmax / tlast / LR / AUC / AUC(0-inf): human; for AUC(0-t) / Vd/F / Tmax / Cmax / half-life / AUC / AUC(0-inf): plasma; for AUC(0-t) / Vd/F / Tmax / Cmax / half-life: po; for Vd/F: read-out: Vz/F; for LR: linearity ratio; for AUC: read-out: AUC0-τ
From the text: Identify the maximum tolerated dose (MTD) and/or recommended Phase 2 dose (RP2D) of HC-7366, and evaluate the safety, tolerability, and dose-limiting toxicities (DLTs) of HC-7366 using Form III of the potassium salt of the compound of formula (I) (see Example 6, also referred to within this example as HC-7366-K), in subjects with advanced solid tumors, including: • a. occurrence of DLTs • b. incidence and severity of treatment-emergent adverse events (TEAEs) and treatment related TEAEs according to National Cancer Institute Common Terminology Criteria for Adverse Events (NCI CTCAE) v 5.0 • c. incidence of TEAEs leading to premature discontinuation • d. incidence of laboratory abnormalities, based on NCI CTCAE grades of hematology, serum chemistry, and urinalysis test results • e. incidence of abnormalities observed in 12 lead ECG parameters • f. incidence of abnormalities observed in vital signs measurements
Determine plasma concentration and pharmacokinetic (PK) parameters following treatment with HC-7366 using Form III of the potassium salt of the compound of formula (I) (see Example 6, also referred to within this example as HC-7366-K).
Preliminarily assess the potential antitumor activity of HC-7366 in terms of response rate, disease stabilization, and survival outcomes by assessing: • a. Overall response rate (ORR) to HC-7366 using response evaluation criteria in solid tumors (iRECIST) • b. Duration of response (DOR) to HC-7366 using iRECIST • c. Time to treatment failure (TTF) • d. Progression free survival (PFS) using iRECIST • e. Overall survival (OS)
This is a first in human, multicenter, open label, Phase 1a and 1b dose-escalation and dose-expansion study to establish the maximum tolerated dose, recommended Phase 2 dose, and evaluate the safety and tolerability of QD oral dosing of HC 7366 in a dose escalating fashion in subjects with advanced solid tumors. Up to 40 subjects were enrolled into the Phase 1a dose-escalation part of the study. The study was conducted in the United States at approximately 7 to 10 sites.
Every effort was made to ensure approximately 50% of all subjects enrolled into Phase 1a of this study are subjects with the tumors of special interest including squamous cell carcinoma of the head and neck, colorectal cancer, non-small cell lung cancer, and transitional cell carcinoma of the bladder. […] All subjects in Phase 1b enrolled with clear cell renal cell carcinoma. The Phase 1a study followed a traditional 3+3 design. The starting dose level was 10 mg QD, escalating to 20, 40, 75, 125, and 150 mg QD as safety allows. All doses were administered in the fasting state with water at least 1 hour before food or at least 2 hours after food.
The Phase 1b dose-expansion was at a single dose level of 75 mg based on the safety, tolerability, PK/PD results from Phase 1a to obtain additional safety and preliminary efficacy information. Up to 30 subjects were enrolled in the Phase 1b portion of the study at the 75 mg dose. Replacement patients were enrolled as necessary. Subjects were dosed until unacceptable toxicity, disease progression per immune-related Response Evaluation Criteria in Solid Tumors, discontinuation of treatment for other protocol allowed reason (eg, subject refusal), any other administrative reasons, or after 2 years of treatment, whichever occurs first.
For scheduling purposes, dosing in Phase 1a and 1b occurred in 3 week cycles and computed tomography scans were conducted once every 6 weeks from Cycle 1/Day 1, with the first postbaseline scan after 6 weeks of dosing (precycle 3) until confirmed disease progression, death, start of new anticancer therapy, withdrawal of consent, or end of study, whichever occurs first.
Subjects of Phase 1a and 1b spent Cycle 1/Day 1 (C1D1) in the clinic followed by an optional overnight stay for safety monitoring and PK sampling. Subjects were hospitalized (optional) for administration of the first 2 doses: C1D1 and Cycle 1/Day 2 (C1D2). […]

[1] = 75 mg, multiple once daily oral 75 mg (N = 7), Cycle 1 Day 21, geometric mean
[2] = 75 mg, single oral dose 75 mg (N = 10), Cycle 1 Day 1, geometric mean
[3] = 125 mg, multiple once daily oral 125 mg (N = 1), Cycle 1 Day 21
[4] = 125 mg, single oral dose 125 mg (N = 6), Cycle 1 Day 1, geometric mean
[5] = single oral dose 10 mg (N = 3), Cycle 1 Day 1, geometric mean
[6] = single oral dose 20 mg (N = 3), Cycle 1 Day 1, geometric mean
[7] = single oral dose 40 mg (N = 11), Cycle 1 Day 1, geometric mean
[8] = single oral dose 75 mg (N = 10), Cycle 1 Day 1, geometric mean
[9] = single oral dose 125 mg (N = 6), Cycle 1 Day 1, geometric mean
[10] = multiple once daily oral 10 mg (N = 3), Cycle 1 Day 21, geometric mean
[11] = multiple once daily oral 20 mg (N = 3), Cycle 1 Day 21, geometric mean
[12] = multiple once daily oral 40 mg (N = 8), Cycle 1 Day 21, geometric mean
[13] = multiple once daily oral 75 mg (N = 7), Cycle 1 Day 21, geometric mean
[14] = multiple once daily oral 125 mg (N = 1), Cycle 1 Day 21

CNC(=O)c1ncn2cc(-c3c(F)ccc(NS(=O)(=O)c4cc(Cl)cnc4OC)c3F)ncc12 [HC-7366, 6-(3-((5-chloro-2-methoxypyridine)-3-sulfonamido)-2,6-difluorophenyl)-N-methylimidazo[1,5-a]pyrazine-1-carboxamide]
AUC(0-t) (40 mg, single oral dose 40 mg (N = 11), Cycle 1 Day 1, geometric mean, read-out: AUC0-24): 52900 ng·h/mL
AUC(0-t) (40 mg, single oral dose 40 mg (N = 11), Cycle 1 Day 1, geometric mean, read-out: AUC0-last): 52900 ng·h/mL
Vd/F (40 mg, single oral dose 40 mg (N = 11), Cycle 1 Day 1, geometric mean): 10.5 L
Tmax (40 mg, single oral dose 40 mg (N = 11), Cycle 1 Day 1, median): 2 h
Cmax [1]: 14300 ng/mL
half-life [1]: 17.8 h
AUC(0-t) (75 mg, multiple once daily oral 75 mg (N = 7), Cycle 1 Day 21, geometric mean, read-out: AUC0-last): 166000 ng·h/mL
Vd/F [1]: 9.51 L
Tmax (75 mg, multiple once daily oral 75 mg (N = 7), Cycle 1 Day 21, median): 2 h
Cmax [2]: 10200 ng/mL
half-life [2]: 15.2 h
AUC(0-t) (75 mg, single oral dose 75 mg (N = 10), Cycle 1 Day 1, geometric mean, read-out: AUC0-24): 100000 ng·h/mL
AUC(0-t) (75 mg, single oral dose 75 mg (N = 10), Cycle 1 Day 1, geometric mean, read-out: AUC0-last): 100000 ng·h/mL
Vd/F [2]: 11.2 L
Tmax (75 mg, single oral dose 75 mg (N = 10), Cycle 1 Day 1, median): 2 h
Cmax [3]: 38200 ng/mL
half-life [3]: 16.5 h
AUC(0-t) (125 mg, multiple once daily oral 125 mg (N = 1), Cycle 1 Day 21, read-out: AUC0-last): 260000 ng·h/mL
Vd/F [3]: 7.4 L
Cmax [4]: 18800 ng/mL
half-life [4]: 14 h
AUC(0-t) (125 mg, single oral dose 125 mg (N = 6), Cycle 1 Day 1, geometric mean, read-out: AUC0-24): 216000 ng·h/mL
AUC(0-t) (125 mg, single oral dose 125 mg (N = 6), Cycle 1 Day 1, geometric mean, read-out: AUC0-last): 204000 ng·h/mL
Vd/F [4]: 7.85 L
Tmax (125 mg, single oral dose 125 mg (N = 6), Cycle 1 Day 1, median): 2 h
% AUCextrap [5]: 22.7%
CL/F [5]: 0.508 L/h
DAUC0-24 [5]: 1510 ng·h/mL/mg
DAUC0-last [5]: 1510 ng·h/mL/mg
DAUC0-∞ [5]: 1970 ng·h/mL/mg
DCmax [5]: 145 ng/mL/mg
tlast (single oral dose 10 mg (N = 3), Cycle 1 Day 1, median): 24.00 h
% AUCextrap [6]: 17.9%
CL/F [6]: 0.544 L/h
DAUC0-24 [6]: 1440 ng·h/mL/mg
DAUC0-last [6]: 1440 ng·h/mL/mg
DAUC0-∞ [6]: 1840 ng·h/mL/mg
DCmax [6]: 116 ng/mL/mg
tlast (single oral dose 20 mg (N = 3), Cycle 1 Day 1, median): 24.00 h
% AUCextrap [7]: 31.0%
CL/F [7]: 0.491 L/h
DAUC0-24 [7]: 1320 ng·h/mL/mg
DAUC0-last [7]: 1320 ng·h/mL/mg
DAUC0-∞ [7]: 2040 ng·h/mL/mg
DCmax [7]: 113 ng/mL/mg
tlast (single oral dose 40 mg (N = 11), Cycle 1 Day 1, median): 24.00 h
% AUCextrap [8]: 30.2%
CL/F [8]: 0.508 L/h
DAUC0-24 [8]: 1340 ng·h/mL/mg
DAUC0-last [8]: 1340 ng·h/mL/mg
DAUC0-∞ [8]: 1970 ng·h/mL/mg
DCmax [8]: 136 ng/mL/mg
tlast (single oral dose 75 mg (N = 10), Cycle 1 Day 1, median): 24.00 h
% AUCextrap [9]: 33.6%
CL/F [9]: 0.390 L/h
DAUC0-24 [9]: 1730 ng·h/mL/mg
DAUC0-last [9]: 1630 ng·h/mL/mg
DAUC0-∞ [9]: 2570 ng·h/mL/mg
DCmax [9]: 150 ng/mL/mg
tlast (single oral dose 125 mg (N = 6), Cycle 1 Day 1, median): 24.00 h
LR [10]: 1.11
LR [11]: 1.14
LR [12]: 1.11
LR [13]: 1.22
LR [14]: 0.759
subjects who discontinued treatment due to an AE (of 34 treated subjects, 10 to 125 mg cohorts): 5 subjects
AUC [10]: 21900 ng·h/mL
AUC [11]: 41900 ng·h/mL
AUC [12]: 99300 ng·h/mL
AUC [13]: 187000 ng·h/mL
AUC [14]: 401000 ng·h/mL
AUC(0-inf) [5]: 19700 ng·h/mL
AUC(0-inf) [6]: 36800 ng·h/mL
AUC(0-inf) [7]: 81500 ng·h/mL
AUC(0-inf) [8]: 148000 ng·h/mL
AUC(0-inf) [9]: 321000 ng·h/mL
